The source of these data is PMC6134108, “Nystatin-like Pseudonocardia polyene B1, a novel disaccharide-containing antifungal heptaene antibiotic” (Scientific Reports, 2018).

What is called half-life is the time needed for the level to fall by half in the phase considered. A low value points to rapid decline. As usually defined, the microsomal CLint is a measure of how fast metabolising enzymes remove a compound, apart from limits set by blood flow. A lower microsomal CLint goes with slow turnover.

For series [1], the system named is cholesterol-containing membranes. As to the kind of experiment: Preliminary SPR experiments. The settings on record: unpublished data. The series is classed as binding.
A short description of series [2]: Microsomal (metabolic) stability. The settings on record: human liver microsomes 1.0 mg/ml; for half-life at 1 µM / microsomal CLint at 1 µM / remaining at 80 min, 1 µM: pH 7.4; for remaining at 80 min, 1 µM: 80-min incubation. The series is classed as in vitro ADME. As to the method: A metabolic stability experiment was conducted to calculate the rate of disappearance of polyene macrolides following in vitro incubation with human microsomes. Working solutions of polyene macrolides were prepared from a 10 mM stock solution in dimethyl sulfoxide (DMSO) diluted to a final concentration of 1 µM in 0.1 M potassium phosphate buffer (pH 7.4). Each incubation mixture included 1 mg/mL human microsomal protein (BD Gentest^TM, Franklin Lakes, NJ, USA) and 1 mM NADPH. The reactions were terminated at 0, 15, 45, and 80 min. The reaction mixtures were vigorously vortexed and then analyzed using the API2000 LC-MS/MS) system (Applied Biosystems, USA) using an Xterra MS C18 (3.5-µm, 2.1 × 50 mm, Waters).
A general note: Microsomes from liver hold many membrane-bound enzymes, among them those of drug oxidation.

Series [3] relates to HepG2 cells. The series can be described thus: In vitro hepatotoxicity (MTS cell proliferation assay). The series is classed as cell-based, human. The method, then:
(§1) For the minimum inhibitory concentration (MIC) assay, strains for testing were grown on YPD agar for 24 hours, and subcultured to YPD broth medium. Whole strains were incubated for 18 hours at 35 °C by shaking incubator. Grown organisms were diluted with fresh RPMI 1640 medium to appropriate concentration, 5 × 10^4 CFU/ml. Cultures were inoculated to 96-well plates containing antifungal medium. All compounds were dissolved using Dimethyl Sulfoxide (DMSO) and diluted broth media. Fungal diluted solution and antifungal medium were mixed at 1:1 ratio so total 200 ul mixed medium was made. Whole experiment plates were incubated for 24 hours at 37 °C. […] The MICs were calculated in duplicate using the Clinical and Laboratory Standards Institute M27-A3 microbroth methodology. Hemolysis experiments and the 3-(4,5-dimethylthiazol-2-yl)-5-(3-carboxymethoxyphenyl)-2-(4-sulfophenyl)-2H-tetrazolium (MTS) cell proliferation colorimetric assay were performed following known procedures[12],[27],[29].
(In general: Tetrazolium dyes change colour on reduction, which living cells bring about.)

The test system of series [4] is Hep3B cells. Described as above. It counts as cell-based, human. As to the method: as §1
Series [5] relates to C. albicans. The series can be described thus: In vitro antifungal activity against four different C. albicans strains (comparison). It counts as cell-based, Candida albicans. As to the method: as §1

SMILES strings stand for the structures.

Take `C[C@@H]1[C@H](O)[C@@H](C)/C=C/C=C/C=C/C=C/C=C/C=C/C=C/[C@H](O[C@@H]2O[C@H](C)[C@@H](O)[C@H](N)[C@@H]2O)C[C@@H]2O[C@](O)(C[C@@H](O)C[C@@H](O)[C@H](O)CC[C@@H](O)C[C@@H](O)CC(=O)O[C@H]1C)C[C@H](O)[C@H]2C(=O)O` [Amphotericin B, amphotericin B]: the “affinity compared with NPP B1” value in series [1] is “higher affinity”. Moreover, in series [2], the Clearance class entry is “Low”; the half-life at 1 µM was above 80 min; the microsomal CLint at 1 µM is below 8600 µL/min/mg; the share remaining at 80 min, 1 µM was 101%.
Consider `CC(=O)NC1C(OC2C(C)OC(OC3C=CC=CC=CC=CC=CC=CC=CC(C)C(O)C(C)C(C)OC(=O)CC(O)CC(O)CC(O)CCC(O)C(O)CC4(O)CC(O)C(C(=O)O)C(C3)O4)C(O)C2N)OC(CO)C(O)C1O` (stereo not shown) [NPP B1, Nystatin-like Pseudonocardia polyene B1], for which, in series [2], the Clearance class entry is listed as “Moderate”, the k came out at 0.019, the half-life at 1 µM was 36.5 min and the microsomal CLint at 1 µM is 19000 µL/min/mg. Besides, the share remaining at 80 min, 1 µM in series [2] worked out at 28.2%. The “in vitro hepatotoxicity compared with AmB” value in series [3] was “not improved”. In series [4], the “in vitro hepatotoxicity compared with AmB” value was “not improved”. For the same compound, the “antifungal activity, fold lower than amphotericin B” value in series [5] was 2 fold.
